In US20100267561A1, “HERBICIDAL PYRIDAZINONE DERIVATIVES” (priority 2007, published 2010):

Tests used:
Assay type in all cases: in vivo
[1] = test system: winter barley (Hordeum vulgare); assay: Test B postemergence plant response; settings: for Plant response rating, Barley: Postemergence, scale 0 to 100, 0 no effect, 100 complete control
In short: (§1)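 Postemergence spray on 1- to 4-leaf plants (2–18 cm); greenhouse 13–15 d; visual rating vs controls, 0 = no effect, 100 = complete control; dash = not tested.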

[2] = test system: windgrass (Apera spica-venti); assay: Test B postemergence plant response; settings: for Plant response rating, Windgrass: Postemergence
In short: as §1

[3] = test system: large crabgrass (Digitaria sanguinalis); assay: Test B pre-/postemergence plant response; settings: for Crabgrass, Large plant response rating: 8 g ai/ha
In short: (§2)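 Preemergence and postemergence (plants 2-18 cm, 1- to 4-leaf stage) applications used test chemicals in a non-phytotoxic solvent with surfactant. Plants were held in a greenhouse 13 to 15 days, then rated visually against controls on a 0-100 scale (0 no effect, 100 complete control).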

[4] = test system: blackgrass (Alopecurus myosuroides); assay: Test B pre-/postemergence plant response; settings: for Blackgrass plant response rating: 8 g ai/ha
In short: as §2

[5] = test system: lambsquarters (Chenopodium album); assay: Test B pre-/postemergence plant response; settings: for Lambsquarters plant response rating: 8 g ai/ha
In short: as §2

[6] = test system: giant foxtail (Setaria faberii); assay: Test B pre-/postemergence plant response; settings: for Foxtail, Giant plant response rating: 8 g ai/ha
In short: as §2

[7] = test system: cocklebur (Xanthium strumarium); assay: Test B pre-/postemergence plant response; settings: for Cocklebur plant response rating: 8 g ai/ha
In short: as §2

wild oat (Avena fatua) = assay: Test B pre-/postemergence plant response; settings: for Oat, Wild plant response rating: 8 g ai/ha
In short: as §2

[8] = test system: catchweed bedstraw (Galium aparine); assay: Test B pre-/postemergence plant response; settings: Preemergence
In short: as §2

[9] = test system: yellow nutsedge (Cyperus esculentus); assay: Test B pre-/postemergence plant response; settings: for Nutsedge, Yellow plant response rating: 8 g ai/ha
In short: as §2

[10] = test system: common ragweed (Ambrosia elation); assay: Test B pre-/postemergence plant response; settings: for Ragweed plant response rating: 8 g ai/ha
In short: as §2

[11] = test system: johnsongrass (Sorghum halepense); assay: Test B pre-/postemergence plant response; settings: for Johnsongrass plant response rating: 8 g ai/ha
In short: as §2

[12] = test system: common (oilseed) sunflower (Helianthus annuus); assay: Test B pre-/postemergence plant response; settings: Preemergence
In short: as §2

[13] = test system: goosegrass (Eleusine indica); assay: Test B pre-/postemergence plant response; settings: for Goosegrass plant response rating: 8 g ai/ha
In short: as §2

[14] = test system: wheat (Triticum aestivum); assay: Test B pre-/postemergence plant response; settings: for Wheat plant response rating: 8 g ai/ha
In short: as §2

[15] = 8 g ai/ha, postemergence, 0-100 scale
[16] = Postemergence, 16 g ai/ha, scale 0 to 100
[17] = Postemergence, 31 g ai/ha, scale 0 to 100
[18] = Postemergence, 62 g ai/ha, scale 0 to 100, 0 no effect, 100 complete control
[19] = Preemergence, 16 g ai/ha, scale 0 to 100 (0 no effect, 100 complete control)
[20] = Preemergence, 31 g ai/ha, 0 to 100 scale, 0 no effect, 100 complete control
[21] = Preemergence, 62 g ai/ha, scale 0 to 100
[22] = Preemergence, 31 g ai/ha, scale 0 to 100 (0 no effect, 100 complete control)
[23] = 16 g ai/ha, scale 0 to 100 (0 no effect, 100 complete control)

Cc1cc(-c2ccc(Cl)cc2)nn1-c1c(OC(=O)c2ccccc2)cnn(C)c1=O [Compound 48]
Barley plant response rating [1, 15]: 0
Plant response rating, Barley ([1]; 16 g ai/ha): 0
Plant response rating, Barley ([1]; 62 g ai/ha): 10
Windgrass plant response rating [2, 15]: 0
Plant response rating, Windgrass ([2]; 16 g ai/ha, scale 0 to 100): 40
Plant response rating, Windgrass ([2]; 31 g ai/ha, scale 0 to 100): 60
Plant response rating, Windgrass ([2]; 62 g ai/ha, scale 0 to 100, 0 no effect, 100 complete control): 80
Crabgrass, Large plant response rating ([3]; postemergence, 0-100 scale): 70
Plant response rating, Crabgrass, Large [3, 16]: 85
Plant response rating, Crabgrass, Large [3, 17]: 90
Plant response rating, Crabgrass, Large [3, 18]: 100
Plant response rating, Crabgrass, Large [3, 19]: 0
Plant response rating, Crabgrass, Large [3, 20]: 0
Plant response rating, Crabgrass, Large [3, 21]: 0
Crabgrass, Large plant response rating ([3]; Preemergence, scale 0 to 100): 0
Blackgrass plant response rating ([4]; postemergence, 0-100 scale): 40
Plant response rating, Blackgrass [4, 16]: 85
Plant response rating, Blackgrass [4, 17]: 85
Plant response rating, Blackgrass [4, 18]: 95
Plant response rating, Blackgrass [4, 19]: 90
Plant response rating, Blackgrass [4, 20]: 90
Plant response rating, Blackgrass [4, 21]: 100
Blackgrass plant response rating ([4]; Preemergence, scale 0 to 100): 80
Lambsquarters plant response rating ([5]; postemergence, 0-100 scale): 0
Plant response rating, Lambsquarters [5, 16]: 0
Plant response rating, Lambsquarters [5, 17]: 0
Plant response rating, Lambsquarters [5, 18]: 0
Plant response rating, Lambsquarters [5, 19]: 0
Plant response rating, Lambsquarters [5, 20]: 0
Plant response rating, Lambsquarters [5, 21]: 0
Lambsquarters plant response rating ([5]; Preemergence, scale 0 to 100): 0
Foxtail, Giant plant response rating ([6]; postemergence, 0-100 scale): 85
Plant response rating, Foxtail, Giant [6, 16]: 95
Plant response rating, Foxtail, Giant [6, 17]: 100
Plant response rating, Foxtail, Giant [6, 18]: 100
Plant response rating, Foxtail, Giant [6, 19]: 0
Plant response rating, Foxtail, Giant [6, 20]: 0
Plant response rating, Foxtail, Giant [6, 21]: 0
Foxtail, Giant plant response rating ([6]; Preemergence, scale 0 to 100): 0
Cocklebur plant response rating ([7]; postemergence, 0-100 scale): 0
Plant response rating, Cocklebur [7, 16]: 0
Plant response rating, Cocklebur [7, 17]: 0
Plant response rating, Cocklebur [7, 18]: 0
Plant response rating, Cocklebur [7, 19]: 0
Plant response rating, Cocklebur [7, 20]: 0
Plant response rating, Cocklebur [7, 21]: 0
Cocklebur plant response rating ([7]; Preemergence, scale 0 to 100): 0
Oat, Wild plant response rating (wild oat (Avena fatua); postemergence, 0-100 scale): 80
Plant response rating, Oat, Wild (wild oat (Avena fatua); [16]): 95
Plant response rating, Oat, Wild (wild oat (Avena fatua); [17]): 98
Plant response rating, Oat, Wild (wild oat (Avena fatua); [18]): 100
Plant response rating, Oat, Wild (wild oat (Avena fatua); [19]): 5
Plant response rating, Oat, Wild (wild oat (Avena fatua); [22]): 80
Plant response rating, Oat, Wild (wild oat (Avena fatua); [21]): 85
Oat, Wild plant response rating (wild oat (Avena fatua); Preemergence, scale 0 to 100): 0
Plant response rating, Galium [8, 23]: 0
Plant response rating, Galium ([8]; 31 g ai/ha, 0 to 100 scale, 0 no effect, 100 complete control): 0
Nutsedge, Yellow plant response rating ([9]; postemergence, 0-100 scale): 0
Plant response rating, Nutsedge, Yellow [9, 16]: 0
Plant response rating, Nutsedge, Yellow [9, 17]: 0
Plant response rating, Nutsedge, Yellow [9, 18]: 0
Plant response rating, Nutsedge, Yellow [9, 19]: 0
Plant response rating, Nutsedge, Yellow [9, 22]: 0
Plant response rating, Nutsedge, Yellow [9, 21]: 0
Nutsedge, Yellow plant response rating ([9]; Preemergence, scale 0 to 100): 0
Ragweed plant response rating ([10]; postemergence, 0-100 scale): 0
Plant response rating, Ragweed [10, 16]: 0
Plant response rating, Ragweed [10, 17]: 0
Plant response rating, Ragweed [10, 18]: 0
Plant response rating, Ragweed [10, 19]: 0
Plant response rating, Ragweed [10, 22]: 0
Plant response rating, Ragweed [10, 21]: 0
Ragweed plant response rating ([10]; Preemergence, scale 0 to 100): 0
Johnsongrass plant response rating ([11]; postemergence, 0-100 scale): 65
Plant response rating, Johnsongrass [11, 16]: 75
Plant response rating, Johnsongrass [11, 17]: 100
Plant response rating, Johnsongrass [11, 18]: 100
Plant response rating, Johnsongrass [11, 19]: 60
Plant response rating, Johnsongrass [11, 20]: 75
Plant response rating, Johnsongrass [11, 21]: 80
Johnsongrass plant response rating ([11]; Preemergence, scale 0 to 100): 40
Plant response rating, Sunflower [12, 23]: 0
Plant response rating, Sunflower ([12]; 31 g ai/ha, scale 0 to 100 (0 no effect, 100 complete control)): 0
Plant response rating, Sunflower ([12]; 62 g ai/ha, scale 0 to 100): 0
Sunflower plant response rating ([12]; 8 g ai/ha, scale 0 to 100): 0
Goosegrass plant response rating ([13]; postemergence, 0-100 scale): 15
Plant response rating, Goosegrass [13, 16]: 65
Plant response rating, Goosegrass [13, 17]: 75
Plant response rating, Goosegrass [13, 18]: 95
Plant response rating, Goosegrass [13, 19]: 0
Plant response rating, Goosegrass [13, 20]: 0
Plant response rating, Goosegrass [13, 21]: 20
Goosegrass plant response rating ([13]; Preemergence, scale 0 to 100): 0
Wheat plant response rating ([14]; postemergence, 0-100 scale): 0
Plant response rating, Wheat [14, 16]: 50
Plant response rating, Wheat [14, 17]: 95
Plant response rating, Wheat [14, 18]: 98
Plant response rating, Wheat [14, 19]: 0
Plant response rating, Wheat [14, 22]: 5
Plant response rating, Wheat ([14]; Preemergence, 62 g ai/ha, 0 to 100 scale, 0 no effect, 100 complete control): 60
Wheat plant response rating ([14]; Preemergence, scale 0 to 100): 0
